From ChEMBL document CHEMBL3421611, “New quinolone- and 1,8-naphthyridine-3-carboxamides as selective CB2 receptor agonists with anticancer and immuno-modulatory activity” (Eur J Med Chem, 2015) come the findings set out here.

Assay [1] concerns the target T1, Cannabinoid receptor 2 (Homo sapiens, UniProt P34972). Put plainly: Displacement of [3H]-CP-55940 from recombinant human CB2 receptor overexpressed in HEK293 cell membranes after 90 mins.
In assay [2] the target is Cannabinoid receptor 1 (Homo sapiens, UniProt P21554). Put plainly: Displacement of [3H]-CP-55940 from recombinant human CB1 receptor overexpressed in HEK293 cell membranes after 90 mins. For orientation: Displacement assays read how much labelled ligand stays bound in the presence of the test substance.
Cannabinoid receptor 1 (Homo sapiens, UniProt P21554), sequence (P21554 whole entry): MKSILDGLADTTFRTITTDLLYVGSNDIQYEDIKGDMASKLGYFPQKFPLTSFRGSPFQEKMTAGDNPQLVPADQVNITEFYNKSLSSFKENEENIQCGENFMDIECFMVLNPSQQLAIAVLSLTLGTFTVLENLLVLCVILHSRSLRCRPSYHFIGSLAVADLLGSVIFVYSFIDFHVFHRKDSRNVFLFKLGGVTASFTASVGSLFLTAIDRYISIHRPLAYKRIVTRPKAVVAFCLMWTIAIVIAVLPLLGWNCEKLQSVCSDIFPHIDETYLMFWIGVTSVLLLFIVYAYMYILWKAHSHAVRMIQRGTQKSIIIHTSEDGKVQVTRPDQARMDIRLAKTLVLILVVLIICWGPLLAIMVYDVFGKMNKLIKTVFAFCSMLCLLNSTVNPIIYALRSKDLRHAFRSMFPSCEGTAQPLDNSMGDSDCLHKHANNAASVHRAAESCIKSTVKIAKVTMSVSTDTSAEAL
Assay [3] is filed under the species Homo sapiens. Kind of assay: Selectivity index, ratio of Ki for recombinant human CB1 receptor to Ki for recombinant human CB2 receptor.
The subject of assay [4] is PBMC. Kind of assay: Immunomodulatory activity in human myelin basic protein activated PBMC isolated from healthy human assessed as inhibition of CD25 expression at 10 uM after 6 days by flow cytometric analysis. Type of assay: functional, cell-based. On the technique in general: In flow cytometry, cells or beads pass a laser one at a time.
In assay [5] the test system is CHO. Put plainly: Effect on mock-transfected CHO cell membranes after 90 mins by [35S]-GTPgammaS assay. The assay is classed as functional. As to conditions: Cricetulus griseus. Background: GTPγS is a poorly hydrolysed GTP analogue; its binding reports G protein activation.
For assay [6], the system named is PBMC. Put plainly: Immunomodulatory activity in human myelin basic protein activated PBMC isolated from healthy human assessed as viable cells at 10 uM after 6 days by trypan blue staining-based haemocytometric analysis. As to conditions: 144 h, read-out: Activity. The assay is classed as functional.
Assay [7] relates to PBMC. Kind of assay: Immunomodulatory activity in human myelin basic protein activated PBMC isolated from healthy human assessed as inhibition of CD69 expression at 10 uM after 6 days by flow cytometric analysis. The assay is classed as functional, cell-based.
Assay [8] has as its target Cannabinoid receptor 1 (Rattus norvegicus) (UniProt P20272). Kind of assay: Agonist activity at CB1 receptor in rat cerebellar membranes after 90 mins by [35S]-GTPgammaS assay relative to 2-AG. The settings on record: Cerebellum, Membrane. The assay is classed as functional, cell membranes.
For assay [9], the system named is PBMC. Kind of assay: Immunomodulatory activity in human myelin basic protein activated PBMC isolated from multiple sclerosis patient assessed as decrease in cell proliferation at 10 uM after 6 days by trypan blue staining-based haemocytometric analysis relative to control. The assay is classed as functional.
In assay [10] the test system is PBMC. Put plainly: Immunomodulatory activity in human myelin basic protein activated PBMC isolated from healthy human assessed as inhibition of CD49d expression at 10 uM after 6 days by flow cytometric analysis. Type of assay: functional, cell-based.
For assay [11], the system named is LNCaP. Put plainly: Cytotoxicity against human LNCAP cells expressing CB2 receptor assessed as decrease in cell viability at 5 uM after 72 hrs by neutral red uptake and accumulation assay in presence of CB2 receptor antagonist MC21 relative to control. The assay is classed as functional, cell-based.
The target of assay [12] is Cannabinoid receptor 1 (Rattus norvegicus, UniProt P20272). Put plainly: Agonist activity at CB1 receptor in rat cerebellar membranes after 90 mins by [35S]-GTPgammaS assay. Type of assay: functional, cell membranes, Cerebellum, Membrane.
Cannabinoid receptor 1 (Rattus norvegicus, UniProt P20272), sequence (P20272 whole entry): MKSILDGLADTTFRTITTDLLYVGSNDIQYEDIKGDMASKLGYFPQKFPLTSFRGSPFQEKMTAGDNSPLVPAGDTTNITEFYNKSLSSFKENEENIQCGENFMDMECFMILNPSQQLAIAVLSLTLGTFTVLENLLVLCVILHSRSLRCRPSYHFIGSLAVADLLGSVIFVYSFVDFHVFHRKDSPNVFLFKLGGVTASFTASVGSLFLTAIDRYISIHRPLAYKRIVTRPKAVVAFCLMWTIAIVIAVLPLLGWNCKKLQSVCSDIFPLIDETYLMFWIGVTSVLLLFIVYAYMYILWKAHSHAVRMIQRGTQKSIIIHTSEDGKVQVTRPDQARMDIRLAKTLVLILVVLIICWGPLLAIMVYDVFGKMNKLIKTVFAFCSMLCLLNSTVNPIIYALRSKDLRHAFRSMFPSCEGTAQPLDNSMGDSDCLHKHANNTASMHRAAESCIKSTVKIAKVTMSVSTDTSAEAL
Assay [13] deals with Cannabinoid receptor 1 (Rattus norvegicus) (UniProt P20272). Put plainly: Agonist activity at CB1 receptor in rat cerebellar membranes at 3 uM after 90 mins by [35S]-GTPgammaS assay in presence of CB1 antagonist AM251. The settings on record: Cerebellum, Membrane. The assay is classed as functional, cell membranes.
Cannabinoid receptor 1 (Rattus norvegicus), sequence (P20272 whole entry): as above
Assay [14] relates to PBMC. Kind of assay: Antiinflammatory activity in human myelin basic protein activated PBMC isolated from healthy human assessed as inhibition of phosphorylated Cox-2 expression at 10 uM after 6 days by Western blot analysis. Type of assay: functional, cell-based.
Assay [15] deals with PBMC. Put plainly: Immunomodulatory activity in human myelin basic protein activated PBMC isolated from healthy human assessed as inhibition of CD62 expression at 10 uM after 6 days by flow cytometric analysis. The assay is classed as functional, cell-based.
In assay [16] the test system is LNCaP. Put plainly: Cytotoxicity against human LNCAP cells expressing CB2 receptor assessed as decrease in cell viability after 72 hrs by neutral red uptake and accumulation assay.
The target in assay [17] is T1, Cannabinoid receptor 2. Put plainly: Agonist activity at human CB2 receptor transfected in CHO cell membranes after 90 mins by [35S]-GTPgammaS assay. Type of assay: functional.
The test system of assay [18] is PBMC. Put plainly: Antiinflammatory activity in human myelin basic protein activated PBMC isolated from healthy human assessed as inhibition of phosphorylated Akt expression at 10 uM after 6 days by Western blot analysis. Type of assay: functional, cell-based.
Assay [19] deals with PBMC. Kind of assay: Immunomodulatory activity in human myelin basic protein activated PBMC isolated from healthy human assessed as inhibition of CD54 expression at 10 uM after 6 days by flow cytometric analysis. The assay is classed as functional, cell-based.
Assay [20] relates to PBMC. Kind of assay: Immunomodulatory activity in human myelin basic protein activated PBMC isolated from multiple sclerosis patient assessed as decrease in cell proliferation after 6 days by trypan blue staining-based haemocytometric analysis relative to control. Type of assay: functional.
Assay [21] deals with PBMC. Kind of assay: Immunomodulatory activity in human myelin basic protein activated PBMC isolated from multiple sclerosis patient assessed as inhibition of CD54 expression at 10 uM after 6 days by flow cytometric analysis. The assay is classed as functional, cell-based.
The subject of assay [22] is PBMC. Kind of assay: Immunomodulatory activity in human myelin basic protein activated PBMC isolated from healthy human assessed as inhibition of CD54 expression after 6 days by flow cytometric analysis. The assay is classed as functional, cell-based.
For assay [23], the target named is Cannabinoid receptor 1 (Rattus norvegicus) (UniProt P20272). Kind of assay: Modulation of CB1 receptor-mediated G protein activity in rat cerebellar membranes at < 10 uM after 90 mins by [35S]-GTPgammaS assay. As to conditions: Cerebellum, Membrane. The assay is classed as functional, cell membranes.
Assay [24] has as its system PBMC. Put plainly: Immunomodulatory activity in human myelin basic protein activated PBMC isolated from healthy human assessed as inhibition of CD49d expression after 6 days by flow cytometric analysis. Type of assay: functional, cell-based.
Assay [25] concerns PBMC. Kind of assay: Antiinflammatory activity in human myelin basic protein activated PBMC isolated from multiple sclerosis patient assessed as inhibition of phosphorylated Akt expression at 10 uM after 6 days by Western blot analysis. The assay is classed as functional, cell-based.
Assay [26] deals with PBMC. Put plainly: Immunomodulatory activity in human myelin basic protein activated PBMC isolated from multiple sclerosis patient assessed as inhibition of CD25 expression at 10 uM after 6 days by flow cytometric analysis. The assay is classed as functional, cell-based.
Assay [27] deals with PBMC. Put plainly: Antiinflammatory activity in human myelin basic protein activated PBMC isolated from multiple sclerosis patient assessed as inhibition of phosphorylated Cox-2 expression at 10 uM after 6 days by Western blot analysis. Type of assay: functional, cell-based.
The subject of assay [28] is PBMC. Kind of assay: Antiinflammatory activity in human myelin basic protein activated PBMC isolated from healthy human assessed as inhibition of phosphorylated Akt expression after 6 days by Western blot analysis. Type of assay: functional, cell-based.
Assay [29] relates to PBMC. Kind of assay: Immunomodulatory activity in human myelin basic protein activated PBMC isolated from healthy human assessed as inhibition of CD25 expression after 6 days by flow cytometric analysis. Type of assay: functional, cell-based.
The subject of assay [30] is PBMC. Put plainly: Antiinflammatory activity in human myelin basic protein activated PBMC isolated from healthy human assessed as inhibition of phosphorylated Cox-2 expression after 6 days by Western blot analysis. The assay is classed as functional, cell-based.
Assay [31] relates to PBMC. Kind of assay: Immunomodulatory activity in human myelin basic protein activated PBMC isolated from healthy human assessed as inhibition of CD69 expression after 6 days by flow cytometric analysis. The assay is classed as functional, cell-based.
Assay [32] relates to PBMC. Put plainly: Immunomodulatory activity in human myelin basic protein activated PBMC isolated from healthy human assessed as inhibition of CD62 expression after 6 days by flow cytometric analysis. Type of assay: functional, cell-based.
The subject of assay [33] is PBMC. Kind of assay: Immunomodulatory activity in human myelin basic protein activated PBMC isolated from multiple sclerosis patient assessed as inhibition of CD49d expression at 10 uM after 6 days by flow cytometric analysis. The assay is classed as functional, cell-based.
Assay [34] has as its system LNCaP. Kind of assay: Cytotoxicity against human LNCAP cells expressing CB2 receptor assessed as decrease in cell viability at 2 uM after 72 hrs by neutral red uptake and accumulation assay in presence of CB2 receptor antagonist MC21 relative to control. Type of assay: functional, cell-based.
Assay [35] relates to PBMC. Kind of assay: Immunomodulatory activity in human myelin basic protein activated PBMC isolated from healthy human assessed as decrease in cell proliferation after 6 days by trypan blue staining-based haemocytometric analysis relative to control. Type of assay: functional.

pEC50, pIC50, pKi: −log10 of the molar value. Active and inactive are the calls of the source. The rule behind the calls is not given here.

In general, pKi refers to the negative decadic logarithm of the Ki, by convention in mol/L. In general, Emax refers to the greatest response seen or fitted, relative to the assay's reference. In general, pEC50 refers to −log10 of the EC50, conventionally taken in molar units. By pIC50 is commonly meant the IC50 on a negative log10 scale, so that one unit is a factor of ten.

T1 sequence (P34972 whole entry): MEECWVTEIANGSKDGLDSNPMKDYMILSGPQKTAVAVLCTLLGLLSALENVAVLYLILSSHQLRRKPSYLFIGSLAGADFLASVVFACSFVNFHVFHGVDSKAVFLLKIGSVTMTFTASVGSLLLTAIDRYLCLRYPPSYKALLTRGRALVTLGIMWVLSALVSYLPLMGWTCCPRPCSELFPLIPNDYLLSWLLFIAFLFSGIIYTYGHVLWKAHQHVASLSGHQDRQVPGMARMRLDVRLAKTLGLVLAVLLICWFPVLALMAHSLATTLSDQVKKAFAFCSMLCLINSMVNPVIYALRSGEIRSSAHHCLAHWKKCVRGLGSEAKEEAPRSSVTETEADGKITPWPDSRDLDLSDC

For the compound `CC1CCC(NC(=O)c2c(O)c3cccnc3n(CCCO)c2=O)CC1` (configuration not stated), the pKi is 6.67 in assay [1] and below 5.00 in assay [2]. Moreover, in [3], the Ratio Ki was above 4.6.

`CC1CCC(NC(=O)c2c(O)c3cccnc3n(CCN3CCOCC3)c2=O)CC1` (configuration not stated): the pKi is 8.13 in assay [1] and 6.20 in [2]. Besides, the Ratio Ki in assay [3] is 85.

Turning to `CC1CCC(NC(=O)c2cc3ccccc3n(CCN3CCOCC3)c2=O)CC1` (configuration not stated), the pKi in assay [1] is 8.38; in [2], 6.10. The Ratio Ki in [3] was 190.

With `CCCCCn1c(=O)c(C(=O)NC2CCC(C)CC2)cc2ccccc21` (configuration not stated), the inhibition result in assay [4], in assay [7], in assay [14] and in assay [18] was “Active” throughout. The result in assay [5], in [11] and in assay [13] was inactive. In assay [6], the viability at 10 µM turned out to be 71.5%. The Emax amounted to 230% in assay [8] and 280% in assay [17]. The result in [9] was Active. Moreover, the pKi in assay [1] is 8.82; in [2], 6.64. The inhibition entry in [10], in assay [15] and in assay [19] was “inactive” throughout. Further, the pEC50 is 5.60 in [12] and 8.70 in assay [17]. Besides, the pIC50 in assay [16] is 5.41.

As to `CCCC(C)(C)c1ccc2c(c1)OC(C)(C)[C@@H]1CC=C(C)C[C@@H]21`, in assay [16], the pIC50 was 4.93.

Take `CC1CCC(NC(=O)c2cc3ccccc3n(CCCO)c2=O)CC1` (configuration not stated): the figures for the pKi in [1] and in [2] were 7.44 and 5.42, respectively. For the same compound, in assay [3], the Ratio Ki came out at 104.

As for `CCCn1c(=O)c(C(=O)NC2CCC(C)CC2)cc2ccccc21` (configuration not stated), the pKi is 7.60 in [1] and 5.58 in assay [2]. Also, the Ratio Ki in assay [3] is 102.

As to `CC1CCC(NC(=O)c2c(O)c3cccnc3n(Cc3ccc(F)cc3)c2=O)CC1` (configuration not stated), the outcome in assay [5], in assay [23] and in assay [34] was inactive. Also, the Activity entry in assay [20] and in [35] was “Dose-dependent effect” each time. Further, the inhibition entry in assay [21], in assay [25], in assay [26], in assay [27] and in assay [33] was “Active” throughout. The inhibition result in assay [22], in assay [24], in [28], in [29], in assay [30] and in assay [31] was “Dose-dependent effect” each time. The inhibition result in assay [32] was “Dose-dependent effect”. In addition, the pKi was 9.12 in assay [1] and 6.86 in assay [2]. The pIC50 in assay [16] was 5.68. Moreover, in assay [17], the pEC50 was 8.50. This compound came in with an Emax in assay [17] of 216%.

As for `CCCCn1c(=O)c(C(=O)NC2CCC(C)CC2)c(O)c2cccnc21` (configuration not stated), the pKi in assay [1] is 7.95; in assay [2], 6.15. In assay [3], the Ratio Ki amounted to 62.

The compound `CCCCCCC(C)(C)c1cc(O)c2c(c1)OC(C)(C)[C@@H]1CC=C(CO)C[C@@H]21` yielded an Emax in assay [17] of 290%.

For `CCCCn1c(=O)c(C(=O)NC2CCC(C)CC2)cc2ccccc21` (configuration not stated), the pKi is 7.70 in assay [1] and 6.26 in assay [2]. Moreover, the Ratio Ki in assay [3] came out at 28.

On to `CC1CCC(NC(=O)c2cc3ccccc3n(Cc3ccc(F)cc3)c2=O)CC1` (configuration not stated), for which the values for the pKi in [1] and in [2] were 9.12 and 7.71, respectively. The Ratio Ki in [3] was found to be 27.7.
